We go through 6 compounds from patent EP2457906A1, “Derivatives of 1,2,4-benzothiadiazine dioxide, their preparation and use as allosteric modulators of the AMPA receptor” (Universita'del Salento, priority 2010, dated 2012).

In the assay the test system is AMPA-kainate receptors. As to the kind of experiment: Patch-clamp (whole-cell voltage-clamp) recording of kainate-evoked currents in primary cultures of cortical neurons. Type of assay: cell-based. Conditions: rat cortical neurons; for type of allosteric modulation of the AMPA receptor: effect on current induced by Kainate; for Variation in the current induced by Kainate, %: compound at 10 µM, mean ± SE (n = 4-6). The procedure:
The pharmacological studies were conducted using the patch-clamp technique on primary cultures of cortical neurons.
The primary neuronal cultures were obtained from 1-day-old Sprague-Dawley rats. The cells were dispersed with trypsin (0.24 mg/ml) and plated out at a density of 10^6 cells/ml on 35mm Petri dishes pretreated with poly-L-lysine (10 µg/ml). The cells were cultivated in Eagle's Basal Medium with the addition of 10% foetal calf serum, 2 mM glutamine and 100 µg/ml gentamicin, and stored in an incubator at 37°C in 5% carbon dioxide.
To prevent astroglial proliferation, cytosine arabinofuranoside was added (1-10 µM) to the cultures 24h after plating out.
The patch-clamp recordings were performed on a single cell after 7 days in culture using the voltage-clamp technique in whole-cell configuration (Hamill OP, Marty A, Neher E, Sakmann B, Sigworth FJ (1981): Improved patchclamp techniques for high-resolution current recording from cell and cell-free membrane patches. Pflugers Arch, 85-100). […] The currents were amplified with an Axopatch 1 D amplifier (Axon Instruments, Foster City, CA), filtered at 5 kHz and digitised at 10 kHz using the pClamp software (Axon Instruments, Foster City, CA).
The intracellular solutions contained: KCI 140mM, MgCl2 3mM, EGTA 5mM, HEPES 5mM, ATP-Na 2mM, and were brought to pH 7.3 with KOH. The cells were continuously perfused with an external solution containing: NaCl 145mM, KCI 5mM, CaCl2 1mM, HEPES 5mM, glucose 5mM, saccharose 20Mm, and brought to pH 7.4 with NaOH.
The compounds tested were dissolved in DMSO and diluted to the final concentration in the extracellular solution. (The DMSO in the final concentration is less than 0.1%.) The kainate (SIGMA) was dissolved in the extracellular solution. All of the substances were applied directly by gravity through a "Y-tube" perfusion system (Murase K, Ryu PD, Randic M (1989). Excitatory and inhibitory amino acids and peptide-induced responses in acutely isolated rat spinal dorsal horn neurons. Neurosci Lett 103, 56-63).
The electrophysiological data was analysed using the software pCLAMP 6.3 (Axon Instruments).
The compounds according to the invention have proven to be potent allosteric modulators of the response mediated by AMPA-kainate receptors. […] The values are expressed as the mean ± SE (n = 4-6).
Background: Patch clamp records ionic current or voltage across a cell membrane.

Broadly, the EC50 is the midpoint of the concentration-response curve. As to `CC1Nc2c(-c3ccoc3)cc(Cl)cc2S(=O)(=O)N1` (stereo not drawn) [(1), 7-chloro-5-(3-furyl)-3-methyl-3,4-dihydro-2H-1,2,4-benzothiadiazine 1,1-dioxide], the “Variation in the current induced by Kainate, %” value (shortened to “Variation … %”) amounted to 358±80%. The EC50 (potentiation of currents induced by Kainate, calculated from dose/response data of Figure 1) is 1.1 µM. Further, the “type of allosteric modulation of the AMPA receptor” value (from here on “type”) (10 µM) was “positive allosteric modulator”. Also, the “increase of the current induced by Kainate” value (10 µM, text statement on the data of Table 1) is recorded as “around 360 times”. Moreover, under “calculated from dose/response data of Figure 1”, the “EC2X (i.e. the concentration at which the AMPA receptor currents are potentiated 2 times)” value is reported as 500 nM.
On to `CC1Nc2c(-c3ccsc3)cc(Cl)cc2S(=O)(=O)N1` (stereo not drawn) [(2), 7-chloro-3-methyl-5-thien-3-yl-3,4-dihydro-2H-1,2,4-benzothiadiazine 1,1-dioxide], for which the “Variation … %” value was found to be 214±41%. Besides, the “type” value (10 µM) is reported as “positive allosteric modulator”.
On the same counts, the results for `CC1Nc2c(-c3ccco3)cc(Cl)cc2S(=O)(=O)N1` (stereo not drawn) [(3), 7-chloro-5-(2-furyl)-3-methyl-3,4-dihydro-2H-1,2,4-benzothiadiazine 1,1-dioxide] are 80±16% and “positive allosteric modulator”.
In the case of `CCC1Nc2c(-c3ccco3)cc(Cl)cc2S(=O)(=O)N1` (stereo not drawn) [(4), 7-chloro-5-(2-furyl)-3-ethyl-3,4-dihydro-2H-1,2,4-benzothiadiazine 1,1-dioxide], the “Variation … %” value is listed as -32±12%. Also, the “type” value (10 µM) was “negative allosteric modulators”.
As for `O=S1(=O)NCNc2c(-c3ccco3)cc(Cl)cc21` [(5), 7-chloro-5-(2-furyl)-3,4-dihydro-2H-1,2,4-benzothiadiazine 1,1-dioxide], the “Variation … %” value turned out to be 20±5%. Moreover, the “type” value (10 µM) is given as “positive allosteric modulator”.
Take `CC1=Nc2c(-c3ccco3)cc(Cl)cc2S(=O)(=O)N1` [(6), 7-chloro-5-(2-furyl)-3-methyl-1,2,4-benzothiadiazine 1,1-dioxide]: the “Variation … %” value was -21±9%. For the same compound, under “10 µM”, the “type” value is listed as “negative allosteric modulators”.
